Test results from patent publication EP1370276B1, “INTERCELLULAR COMMUNICATION FACILITATING COMPOUNDS AND THEIR MEDICAL USE” (Zealand Pharma A/S, priority 2001, dated 2002).
Like-named read-outs stand apart in the source and are kept apart here.

What was measured:
[1] = target: murine heart tissue preparations; test: Displacement of [125I]AAP10 from murine heart tissue preparations; assay type: binding, mice
Experimental: Hearts are excised from mice (Balb/cJ, 20 g), rinsed twice in ice-cold (0°C) 0.32 M sucrose and homogenized on ice in 10 volumes of sucrose with an Ultra Turrax homogeniser (1000 rpm) for 2 minutes. The homogenate is centrifuged at 1000 gmea" for 10 minutes at 4° C and the supernatant collected and filtrated through 4 layers of gauze. The filtrate is then centrifuged at 50,000 gmean for 45 min at 4° C and the pellet resuspended in 10 volorg. wet weight ice-cold distilled water and incubated for 60 min at 0° C and re-centrifuged at 50,000 gmean at 45 min at 4° C. The resulting pellet is resuspended in 2 vol org. wet weight of PBS (Phosphate Buffered Saline) and stored at - 80° C until use.

[2] = test system: phosphoinositol turnover in rat primary cardiomyocytes; test: Phosphoinositol turnover in primary cardiomyocyte cultures; assay type: cell-based; details: for EC50: enhancement of phospho-inositol turnover
Experimental: Neonatal Wistar rats (1-2 days old) are used. Hank's calcium- and magnesium-free balanced salt solution, buffered with 10 mM HEPES is used for washing during cell separation procedures. The hearts are excised, the ventricles isolated and the tissue cut into small pieces. The myocardial cells are isolated by stepwise enzymatic degradation with collagenase 0.05%, as described by ^[35]. After repeated rounds of centrifugation and washing, the precipitated cells are resuspended in culture medium M199 with Earle's salt, 10% NCS, penicillin (75 U/mL), and streptomycin (75 U/mL) and pre-plated in a Petri dish for 90 minutes. The non-adherent cells are collected in the culture medium and plated in multidishes at 2.5*10^5 cells/well. The cultures are kept in a water-saturated CO2-incubator at 37°C. The cardiomyocyte cultures are used for analyses after 6-7 days.
Cardiomyocyte cultures are incubated for 48 hours in culture medium containing 4 µCi/mL myo-[2-^3H]inositol to label the inositol phospholipids. On the day of analysis the medium is replaced by a buffer solution containing lithium and incubated at 37°C, as described by Meier et al. ^[36]. After at least five minutes this buffer is replaced by the same volume of buffer containing test compound and incubated for exactly 20 minutes. The reaction is stopped by rapid replacement of the buffer by ice cold 4%v/v perchloric acid (PCA) and incubation for at least 20 minutes at 0°C. The PCA-extract is neutralised and the [^3H]inosltol phosphates are separated by anion-exchange chromatography using Amprep™ columns containing 100 mg SAX Quaternary amine. The [^3H]inositol mono-phosphates are eluted and radioactivity in the fraction measured by liquid scintillation counting.
Before adding test substances to the cultures, the cells are depleted of glucose and oxygen by incubating them in a N2-atmosphere in glucose-free lithium-buffer for 10 minutes at 37°C. Control cells are incubated likewise only at normal atmospheric conditions and in a buffer containing glucose.

human osteoblastic cells = test: DDT-induced uncoupling, Lucifer Yellow dye transfer in human osteoblastic cells; assay type: cell-based; details: 10^-8 mol/l, 10 minutes, after DDT 13 µM for 60 minutes
Experimental: Human osteoblast cells: Cells were isolated from human bone marrow obtained by puncture of the posterior iliac spine of healthy volunteers (aged 20-36): 10-15 ml marrow material was collected in 15 ml PBS + Ca, Mg (Life Technologies, Cat.No. 14040) with 100 U/ml Heparin (Sigma, Cat.No. H-3149). The mononuclear fraction of the marrow was isolated on a Lymphoprep gradient (Nycomed Pharma, Cat.No. 1001967), by centrifugation at 2200 rpm for 30 min. After harvesting, the mononuclear fraction was washed once with culture medium and centrifuged at 1800 rpm for 10 min. Subsequently cells were counted and plated in culture medium at 8x10^6 cells/100 mm dish. hOB medium (all reagents obtained from Life Technologies): MEM w/o Phenol Red w/ Glutamax (Cat.No. 041-93013) supplemented with 10% heat inactivated fetal calf serum (Cat.No. 10106) and 0.1% Penicillin/Streptomycin (Cat.No. 15140). Medium was changed the following day and the cells were cultured at 37°C in 5%CO2 with medium change every 7 days. After 3-4 weeks of culture the cells had reached 70% confluence. The medium was then supplemented with 100 nM Dexamethasone (Sigma, Cat.No. D-4902) for 7 days. Cells were then plated for video imaging experiments: a 25 mm #1 glass coverslip was placed in a 35 mm dish (or each well of a 6-well multidish), cells were plated at 2.5x10^5 cells/coverslip and cultured for 2-3 days before use. […]

human osteoblast = human osteoblast cultures and osteoblastic rat osteosarcoma cell lines; conference abstract; cited from earlier work

Ac-D-Tyr-D-Pro-D-4Hyp-Gly-D-Ala-Gly-NH2 [Compound 2]
IC50 ([1]; displacement of 0.8 nM [125I]AAP10, filtrate, read-out: Filtrate IC50): 3.6 nM
IC50 ([1]; displacement of 0.8 nM [125I]AAP10, membranes, read-out: Membranes IC50): 1.2 nM
increase in phospho-inositol turnover compared with noradrenaline alone ([2]; 100 nM + noradrenaline (300 nM), anoxia and glucose deprivation): about 70%
effect on noradrenaline (300 nM) induced increase in phospho-inositol turnover ([2]; 100 nM, control conditions): had no further effect
EC50 ([2]; Glucose and oxygen deprivation): 10 nM
EC50 ([2]; Normal conditions): 10 nM
cell-to-cell dye transfer, median (human osteoblastic cells): 8.3 cells
hypoxia-induced decrease of dye transfer after Lucifer Yellow injections (human osteoblast): completely reversed
